Measured values as given in PubChem BioAssay (NCI).
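Five compound concentrations were applied to cells in 96-well plates for 48 hours; endpoints were derived by simple linear interpolation of the resulting dose-response curve. GI50 = concentration required for 50% inhibition of growth. At the TGI there is no net growth.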

Assays:
Assay in all cases: growth of human tumour cells (NCI), 48 h
ACHN renal = test system: ACHN renal
CAKI-1 renal = test system: CAKI-1 renal
CCRF-CEM leukemia = test system: CCRF-CEM leukemia
HCC-2998 colon = test system: HCC-2998 colon
HCT-15 colon = test system: HCT-15 colon
HOP-62 NSCLC = test system: HOP-62 NSCLC
K-562 leukemia = test system: K-562 leukemia
OVCAR-5 ovarian = test system: OVCAR-5 ovarian
SR leukemia = test system: SR leukemia
UO-31 renal = test system: UO-31 renal

Structure (SMILES) | TGI (ACHN renal) | TGI (CAKI-1 renal) | TGI (CCRF-CEM leukemia) | TGI (HCC-2998 colon) | TGI (HCT-15 colon) | TGI (HOP-62 NSCLC) | TGI (K-562 leukemia) | TGI (OVCAR-5 ovarian) | TGI (SR leukemia) | TGI (UO-31 renal) | GI50 (ACHN renal) | GI50 (CAKI-1 renal) | GI50 (CCRF-CEM leukemia) | GI50 (HCC-2998 colon) | GI50 (HCT-15 colon) | GI50 (HOP-62 NSCLC) | GI50 (K-562 leukemia) | GI50 (OVCAR-5 ovarian) | GI50 (SR leukemia) | GI50 (UO-31 renal)
COc1ccc(CNc2nc3cc(C(F)(F)F)ccc3nc2C(=O)O)cc1 | > 100 µM | > 100 µM | > 100 µM | 71.3 µM | 69.3 µM | 55.5 µM | 61.3 µM | 94.7 µM | 56.1 µM | 42.5 µM |  |  |  |  |  |  |  |  |  | 
C=CCOCn1cnc2c(=O)[nH]c(N)nc21 | > 100 µM | > 100 µM | > 100 µM | > 100 µM | > 100 µM | > 100 µM | > 100 µM | > 100 µM | > 100 µM | > 100 µM |  |  |  |  |  |  |  |  |  | 
C=C(C)CCC(O)[C@](C)(O)[C@H]1[C@H](O)C[C@@]2(C)[C@@H]3CCc4c(cc(OC5OC(CO)C(O)C(O)C5O)c(O)c4C)C3(C)C(=O)C[C@]12C (stereo not given in full) | > 100 µM | > 100 µM | > 100 µM | > 100 µM | > 100 µM | > 100 µM | > 100 µM | > 100 µM | > 100 µM | > 100 µM |  |  |  |  |  |  |  |  |  | 
O=CC1OC(=O)c2cc(O)c(O)c(O)c2-c2c(cc(O)c(O)c2O)C(=O)OC1C1OC(=O)c2cc(O)c(O)c(O)c2-c2c(O)c(O)c3oc(=O)c4c(c(O)c(O)c5oc(=O)c2c3c54)-c2c(cc(O)c(O)c2O)C(=O)OCC1O (stereo not given) | > 100 µM | 25.9 µM | > 100 µM | > 100 µM | > 100 µM | > 100 µM | 71.8 µM | > 100 µM | > 100 µM | > 100 µM |  |  |  |  |  |  |  |  |  | 
CC/C=C\C=C/C(=O)N/C=C/CCC | > 100 µM | > 100 µM | > 100 µM | > 100 µM | > 100 µM | > 100 µM | > 100 µM | > 100 µM | > 100 µM | > 100 µM |  |  |  |  |  |  |  |  |  | 
CC(C)C(=O)/C=C/c1c(Cl)cccc1Cl | 16.2 µM | 13.8 µM | > 100 µM | 29 µM | 17.8 µM | 17.7 µM | > 100 µM | 11.3 µM | > 100 µM | 16 µM |  |  |  |  |  |  |  |  |  | 
[O-][N+]1=C2CCC/C(=N/O)C2(O)C2CCCCC21N1CCOCC1 (stereo not given) | > 100 µM | > 100 µM | > 100 µM | > 100 µM | > 100 µM | > 100 µM | > 100 µM | > 100 µM | > 100 µM | > 100 µM |  |  |  |  |  |  |  |  |  | 
COCCCNc1c2ccccc2nc2ccccc12 | 2.39 µM | 3.75 µM | 60.6 µM | 4.58 µM | 3.38 µM | 12.2 µM | 23.6 µM | 6.93 µM | 12.1 µM | 8.01 µM |  |  |  |  |  |  |  |  |  | 
CON[N+]([O-])=NC(C)C | > 100 µM | > 100 µM | > 100 µM | > 100 µM | > 100 µM | > 100 µM | > 100 µM | > 100 µM | > 100 µM | > 100 µM |  |  |  |  |  |  |  |  |  | 
COc1cc(N(CCCl)CCCl)ccc1/C=N\NC(=O)c1cccnc1 | > 100 µM | 59.2 µM | > 100 µM | > 100 µM | > 100 µM | > 100 µM | > 100 µM | 60.1 µM | > 100 µM | 79.1 µM | 17 µM | 9.25 µM | 23 µM | 41.2 µM | 27.2 µM | 34.9 µM | 36.6 µM | 8.34 µM | 13.7 µM | 23.8 µM
O=C(/C=C/c1cccc(Br)c1)N1CCN(CCOC(c2ccccc2)c2ccccc2)CC1 | > 100 µM | > 100 µM | 39.8 µM | > 100 µM | > 100 µM | > 100 µM | 55 µM | > 100 µM | 38.4 µM | 65.8 µM |  |  |  |  |  |  |  |  |  | 
O=C(CC(=O)N1N=C(N(c2ccccc2)c2ccccc2)CC1c1ccccc1)Nc1cccc(Cl)c1 (stereo not given) | > 100 µM | > 100 µM | > 100 µM | > 100 µM | > 100 µM | > 100 µM | > 100 µM | > 100 µM | > 100 µM | > 100 µM |  |  |  |  |  |  |  |  |  | 
CN(C)NC1=NS(=O)(=O)c2cc3c(=O)n(C)[nH]c3cc2S1 | > 10 µM | > 10 µM | > 10 µM | > 10 µM | > 10 µM | > 10 µM | > 10 µM | > 10 µM | > 10 µM | > 10 µM |  |  |  |  |  |  |  |  |  | 
CN1CCN(c2n[nH]c(=O)c3c2nnn3C2CCCCC2)CC1 | > 100 µM | > 100 µM | > 100 µM | > 100 µM | > 100 µM | > 100 µM | > 100 µM | > 100 µM | > 100 µM | > 100 µM |  |  |  |  |  |  |  |  |  | 
Cc1cccc(N=N/C(=N\NC(=O)c2cc(Cl)ccc2O)c2ccc(N(CCC#N)CCC#N)cc2C)c1 | > 100 µM | > 100 µM | 34.3 µM | 58.7 µM | 88.2 µM | > 100 µM | 67.3 µM | > 100 µM | 52.4 µM | 82.9 µM |  |  |  |  |  |  |  |  |  | 
COc1cc(OC)c(/C=N\Nc2nc3ccccc3c(=O)n2-c2ccccc2)c(OC)c1 | 38.8 µM | 38.3 µM | 51.6 µM | > 100 µM | > 100 µM | 47.7 µM | > 100 µM | > 100 µM | > 100 µM | > 81.4 µM |  |  |  |  |  |  |  |  |  | 
